The source of these data is paper PMC3602354 (Chemical research in toxicology, 2013).

Data set [1] deals with nasal mucosa. Put plainly: Histopathological analysis of nasal mucosa in DCBN-treated WT mice. The format is in vivo, mouse.
Data set [2] relates to WT mouse nasal mucosa microsomes. Put plainly: in vitro. The class given is in vitro ADME. The conditions noted are these: GS-DCBN formation; WT mouse nasal mucosa microsomes; mean ± SE, n=3.
The nature of data set [3]: in vitro. The class given is in vitro ADME, mouse. Conditions: mouse, pH 7.4.
For data set [4], the system named is human fetal nasal mucosa microsomes. Put plainly: in vitro. The conditions noted are these: GS-DCBN formation; human fetal nasal mucosa microsomes; mean ± SE, n=3. The format is in vitro ADME.
A short description of data set [5]: in vitro. The format is in vitro ADME, human. Conditions: both, human.
Data set [6] concerns Cyp2a5-null mouse nasal mucosa microsomes. Put plainly: in vitro. The class given is in vitro ADME.
Data set [7] can be described thus: in vitro. The conditions noted are these: Cyp2a5-null, mouse, pH 7.4. The class given is in vitro ADME, mouse.
The subject of data set [8] is nasal mucosa. Put plainly: Histopathological analysis of nasal mucosa in DCBN-treated Cyp2a5-null mice. The class given is in vivo, mouse. Conditions: DCBN 10 mg/kg single i.p., 24 h after treatment.
Where [9] appears, read: Cyp2a5-null vs WT nasal mucosa microsomes.

Where “and” joins values, the source holds several entries; their conditions need not be identical. Equal values may be shown once.

Broadly, the Km is the concentration of substrate that gives half-maximal velocity. As for `N#Cc1c(Cl)cccc1Cl` [DCBN, 2,6-dichlorobenzonitrile], the “histopathology of nasal mucosa” value is “moderate injury to the nasal mucosa” with nasal mucosa [1] (DCBN 10 mg/kg single i.p., 24 h after treatment); “essentially normal morphology” in the data set with nasal mucosa [1] (DCBN 4 × 1 mg/kg s.c., 1.5-h intervals, 24 h after last treatment); “essentially normal olfactory epithelium and BG” in the data set on nasal mucosa [8]. For the same compound, the Vmax is 1050 ± 30 pmol/min/mg protein in data set [2]; 0.14 pmol/min/mg protein and 0.14 ± 0.01 pmol/min/mg protein in data set [4]; 253 ± 12 pmol/min/mg protein in data set [6] (GS-DCBN formation, Cyp2a5-null mouse nasal mucosa microsomes, mean ± SE, n=3). Also, the Michaelis-Menten constant (Km) stood at 0.43 ± 0.04 µM in the data set “in vitro [3]” and 4.2 ± 0.6 µM in the data set “in vitro [7]”. For the same compound, the Michaelis-Menten constant (Km) at 60 min in “in vitro [5]” was found to be 0.45 ± 0.1 µM. Also, in data set [6] (setting [9]), the “decrease in apparent Vmax compared to WT mice” value is on record as ~ 4 fold. For the same compound, the “increase in apparent Km compared to WT mice” value in data set [6] (setting [9]) is ~ 10 fold. Besides, the “reduction of efficiency for GS-DCBN formation compared to WT mice” value in data set [6] (setting [9]) is reported as ~ 40 fold.
